Experimental data taken from publication PMC11189555, “Aryl amino acetamides prevent Plasmodium falciparum ring development via targeting the lipid-transfer protein PfSTART1” (Nature Communications, 2024).
Where “and” joins values, the source holds several entries; their conditions need not be identical. Equal entries are not always repeated.

Key:
[1] = tested on: PopE-F10 M-833 resistant clone (PfSTART1 N330K); assay: Growth inhibition assay (72 h, LDH activity); format: cell-based, Plasmodium falciparum
Description: The drug was then removed, and parasites were allowed to recover. Another cycle of drug treatment (3 μM M-833) was then resumed. The resistant lines were cloned out by limiting dilution (diluting the culture into a 96-well plate to achieve an average of ~0.3 parasites per well), prior to growth inhibition assays and genomic DNA (gDNA) extraction (DNeasy Blood and Tissue kit (Qiagen)[18].
(§1) Parasite growth assays with inhibitory compounds were performed as per[11] and are fully described in the Supplementary Information. […]
(§2) Growth inhibition assays. Synchronised ring-stage parasites (0.3-0.6% parasitemia, 2% haematocrit) were grown for 72 h in a serial-dilution of the compound under […]
(§3) and compound 4. Note that M-833 was first purchased from MolPort (MolPort -002-267-916) then made in-house at WEHI: the differences observed in EC50s across experiments are attributed to the different batches of M -833. For some experiments, 0, 0.25 or 2.5 mM of glucosamine (GlcN) was also added. Experiments were set up in technical duplicates or triplicates. Following a freeze -thaw cycle, lactate dehydrogenase (LDH) activity was assessed as an indicator of parasite growt h 5. 30 μL of parasite culture was incubated for 30 min in the dark with 75 μL Malstat mixture (0.1 M Tris pH 9.0, 20 g/L lactic acid, pH 7.5, 0.2% Triton-X100, 0.5 g/L acetylpyridine adenine dinucleotide (APAD, Sigma), 200 μg/mL nitroblue tetrazolium (NBT; Sigma), 1 μg/mL phenozine ethosulfate (PES; Sigma)). Absorbance was then measured at 650 nm, transformed using the formula below, plotted against the logarithm of the concentrations, and a non-linear regression (log(inhibitor) vs. response, variable slope) was calculated using GraphPad Prism to assess the half-inhibitory […]
(§4) Growth inhibition % = (1 − average(sample)− average(uRBC)) ∗ 100 […]
(§5) The DMSO samples were also used to assess growth of parasite in the presence of 0.25 and 2.5 mM GlcN (normalised by DMSO in 0 mM GlcN). […]

[2] = tested on: 3D7 P. falciparum parasites; assay: Growth inhibition assay (72 h, LDH activity); format: cell-based, Plasmodium falciparum; settings: for NORMALISED (growth inhibition, LDH absorbance vs DMSO and uRBC): 3D7, 0 mM GlcN; for NORMALISED (growth inhibition, LDH absorbance): 3D7
Description: as §1, §2, §3, §4, §5

Question: Which results are given for `CC(C)(Nc1ccc(Cl)c(S(=O)(=O)N2CCOCC2)c1)C(=O)Nc1ccc(F)c(Cl)c1` [W-991]?
Answer: EC50 ([1]; Plasmodium falciparum, 72 h, Supplementary Table 1, PopE-F10 (N330K), 72 h, read-out: EC50): > 0.2 µM; resistance of the line compared with 3D7 ([1]; PopE-F10 (N330K), Fig 4B): highly resistant; (av-uRBC) / (DMSO-uRBC) x100 ([1]; PopE-F10, 0.0762079 nM, biological replicate 1): 96.1179; (av-uRBC) / (DMSO-uRBC) x100 ([1]; PopE-F10, 0.0762079 nM, biological replicate 2): 104.725; (av-uRBC) / (DMSO-uRBC) x100 ([1]; PopE-F10, 0.0762079 nM, biological replicate 3): 92.7129; (av-uRBC) / (DMSO-uRBC) x100 ([1]; PopE-F10, 0.228624 nM, biological replicate 1): 102.983; (av-uRBC) / (DMSO-uRBC) x100 ([1]; PopE-F10, 0.228624 nM, biological replicate 2): 105.368; (av-uRBC) / (DMSO-uRBC) x100 ([1]; PopE-F10, 0.228624 nM, biological replicate 3): 109.575; (av-uRBC) / (DMSO-uRBC) x100 ([1]; PopE-F10, 0.685871 nM, biological replicate 1): 97.996; (av-uRBC) / (DMSO-uRBC) x100 ([1]; PopE-F10, 0.685871 nM, biological replicate 2): 105.748; (av-uRBC) / (DMSO-uRBC) x100 ([1]; PopE-F10, 0.685871 nM, biological replicate 3): 95.4244; (av-uRBC) / (DMSO-uRBC) x100 ([1]; PopE-F10, 2.05761 nM, biological replicate 1): 96.037; (av-uRBC) / (DMSO-uRBC) x100 ([1]; PopE-F10, 2.05761 nM, biological replicate 2): 105.199; (av-uRBC) / (DMSO-uRBC) x100 ([1]; PopE-F10, 2.05761 nM, biological replicate 3): 105.366; (av-uRBC) / (DMSO-uRBC) x100 ([1]; PopE-F10, 6.17284 nM, biological replicate 1): 97.8882; (av-uRBC) / (DMSO-uRBC) x100 ([1]; PopE-F10, 6.17284 nM, biological replicate 2): 105.604; (av-uRBC) / (DMSO-uRBC) x100 ([1]; PopE-F10, 6.17284 nM, biological replicate 3): 97.9523; (av-uRBC) / (DMSO-uRBC) x100 ([1]; PopE-F10, 18.5185 nM, biological replicate 1): 96.9806; (av-uRBC) / (DMSO-uRBC) x100 ([1]; PopE-F10, 18.5185 nM, biological replicate 2): 104.615; (av-uRBC) / (DMSO-uRBC) x100 ([1]; PopE-F10, 18.5185 nM, biological replicate 3): 86.3579; (av-uRBC) / (DMSO-uRBC) x100 ([1]; PopE-F10, 55.5556 nM, biological replicate 1): 92.6042; (av-uRBC) / (DMSO-uRBC) x100 ([1]; PopE-F10, 55.5556 nM, biological replicate 2): 99.4928; (av-uRBC) / (DMSO-uRBC) x100 ([1]; PopE-F10, 55.5556 nM, biological replicate 3): 87.996; (av-uRBC) / (DMSO-uRBC) x100 ([1]; PopE-F10, 166.667 nM, biological replicate 1): 76.4288; (av-uRBC) / (DMSO-uRBC) x100 ([1]; PopE-F10, 166.667 nM, biological replicate 2): 88.6391; (av-uRBC) / (DMSO-uRBC) x100 ([1]; PopE-F10, 166.667 nM, biological replicate 3): 66.2195; (av-uRBC) / (DMSO-uRBC) x100 ([1]; PopE-F10, 500 nM, biological replicate 1): 33.5999; (av-uRBC) / (DMSO-uRBC) x100 ([1]; PopE-F10, 500 nM, biological replicate 2): 49.6703; (av-uRBC) / (DMSO-uRBC) x100 ([1]; PopE-F10, 500 nM, biological replicate 3): 27.1431; Fold change compared to 3D7 ([1]; Supplementary Table 1, EC50 on PopE-F10 vs 3D7): > 278 fold; NORMALISED (growth inhibition, LDH absorbance vs DMSO and uRBC) ([2]; W991 at 0.137174 nM): 9.0099 and 4.6722; NORMALISED (growth inhibition, LDH absorbance vs DMSO and uRBC) ([2]; W991 at 0.411523 nM): 30.495 and 19.7030; NORMALISED (growth inhibition, LDH absorbance vs DMSO and uRBC) ([2]; W991 at 1.23457 nM): 67.3267 and 60.8717; NORMALISED (growth inhibition, LDH absorbance vs DMSO and uRBC) ([2]; W991 at 3.7037 nM): 88.9109 and 93.8187; NORMALISED (growth inhibition, LDH absorbance vs DMSO and uRBC) ([2]; W991 at 11.1111 nM): 90.3465 and 96.7162; NORMALISED (growth inhibition, LDH absorbance vs DMSO and uRBC) ([2]; W991 at 33.3333 nM): 89.8515 and 96.9697; NORMALISED (growth inhibition, LDH absorbance vs DMSO and uRBC) ([2]; W991 at 100 nM): 92.3267 and 97.2232; NORMALISED (growth inhibition, LDH absorbance) ([2]; 0.25 mM GlcN, dilution point 1 of 10, starting concentration 100 nM): 97.1868; NORMALISED (growth inhibition, LDH absorbance) ([2]; 0.25 mM GlcN, dilution point 2 of 10 from starting concentration 100 nM): 96.6100; NORMALISED (growth inhibition, LDH absorbance) ([2]; 0.25 mM GlcN, dilution point 3 of 10 from starting concentration 100 nM): 96.4481; NORMALISED (growth inhibition, LDH absorbance) ([2]; 0.25 mM GlcN, dilution point 4 of 10 from starting concentration 100 nM): 92.3801; NORMALISED (growth inhibition, LDH absorbance) ([2]; 0.25 mM GlcN, dilution point 5 of 10 from starting concentration 100 nM): 74.4235 and 44.8087; NORMALISED (growth inhibition, LDH absorbance) ([2]; 2.5 mM GlcN, dilution point 1 of 10, starting concentration 100 nM): 96.9212; NORMALISED (growth inhibition, LDH absorbance) ([2]; 2.5 mM GlcN, dilution point 2 of 10 from starting concentration 100 nM): 96.2021; NORMALISED (growth inhibition, LDH absorbance) ([2]; 2.5 mM GlcN, dilution point 3 of 10 from starting concentration 100 nM): 95.7667; NORMALISED (growth inhibition, LDH absorbance) ([2]; 2.5 mM GlcN, dilution point 4 of 10 from starting concentration 100 nM): 92.5258
